In the supplement of paper PMC10307832:

Columns and labels:
Assay in all cases: relative viability (nuclei count vs DMSO), 5 days (fraction); higher = more cells survive
BI-2536 + Decitabine = compound: CC[C@@H]1C(=O)N(C)c2cnc(Nc3ccc(C(=O)NC4CCN(C)CC4)cc3OC)nc2N1C1CCCC1 [BI-2536] + Nc1ncn([C@H]2C[C@H](O)[C@@H](CO)O2)c(=O)n1 [Decitabine] (partner 2 µM)
In short: (§1)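 Each reported value is a median over duplicate plates. It expresses relative viability: treated-well nuclei count divided by vehicle-well nuclei count. Lung cancer cell lines in 1536-well plates were dosed by pin tool a day after seeding, alone with one drug or with a fixed anchor-drug dose plus five library-drug doses (not always all listed) in √10 steps, and nuclei were counted after 5 days.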

[1] = compound: CC1CC(=O)N(C2=CN=C(N=C2N1C3CCCC3)NC4=C(C=C(C=C4)C(=O)NC5CCN(CC5)C)OC)C [NPK76-II-72-1] + Nc1nc2[nH]cc(CCc3ccc(C(=O)N[C@@H](CCC(=O)O)C(=O)O)cc3)c2c(=O)[nH]1 [Pemetrexed] (partner 0.2 µM)
In short: as §1

BI-2536 + Olaparib = compound: CC[C@@H]1C(=O)N(C)c2cnc(Nc3ccc(C(=O)NC4CCN(C)CC4)cc3OC)nc2N1C1CCCC1 [BI-2536] + O=C(c1cc(Cc2n[nH]c(=O)c3ccccc23)ccc1F)N1CCN(C(=O)C2CC2)CC1 [Olaparib] (partner 8 µM)
In short: as §1

BI-2536 + OSI-027 = compound: CC[C@@H]1C(=O)N(C)c2cnc(Nc3ccc(C(=O)NC4CCN(C)CC4)cc3OC)nc2N1C1CCCC1 [BI-2536] + COc1cccc2cc(-c3nc([C@H]4CC[C@H](C(=O)O)CC4)n4ncnc(N)c34)[nH]c12 [OSI-027] (partner 0.5 µM)
In short: as §1

Row | Cell Line | relative viability (BI-2536 + Decitabine; first compound 0.01 µM) | relative viability (BI-2536 + Decitabine; first compound 0.03162 µM) | relative viability (BI-2536 + Decitabine; first compound 0.1 µM) | relative viability (BI-2536 + Decitabine; first compound 0.3162 µM) | relative viability (BI-2536 + Decitabine; first compound 1 µM) | relative viability ([1]; first compound 0.01 µM) | relative viability ([1]; first compound 0.03162 µM) | relative viability ([1]; first compound 0.1 µM) | relative viability ([1]; first compound 0.3162 µM) | relative viability ([1]; first compound 1 µM) | relative viability (BI-2536 + Olaparib; first compound 0.01 µM) | relative viability (BI-2536 + Olaparib; first compound 0.03162 µM) | relative viability (BI-2536 + Olaparib; first compound 0.1 µM) | relative viability (BI-2536 + Olaparib; first compound 0.3162 µM) | relative viability (BI-2536 + Olaparib; first compound 1 µM) | relative viability (BI-2536 + OSI-027; first compound 0.01 µM) | relative viability (BI-2536 + OSI-027; first compound 0.03162 µM) | relative viability (BI-2536 + OSI-027; first compound 0.1 µM) | relative viability (BI-2536 + OSI-027; first compound 0.3162 µM) | relative viability (BI-2536 + OSI-027; first compound 1 µM)
1 | NCI-H1666 | 0.716 | 0.68 | 0.625 | 0.411 | 0.378 | 0.844 | 0.802 | 0.88 | 0.78 | 0.917 | 0.76 | 0.704 | 0.671 | 0.545 | 0.583 | 0.881 | 0.842 | 0.686 | 0.378 | 0.311
2 | LC-2-ad | 0.739 | 0.659 | 0.506 | 0.247 | 0.223 | 0.24 | 0.281 | 0.269 | 0.266 | 0.272 | 0.705 | 0.621 | 0.24 | 0.205 | 0.205 | 0.903 | 0.743 | 0.247 | 0.283 | 0.33
3 | SK-LU-1 | 0.61 | 0.726 | 0.337 | 0.316 | 0.249 | 0.972 | 1.05 | 0.925 | 1.03 | 1.04 | 0.418 | 0.503 | 0.302 | 0.179 | 0.167 | 0.341 | 0.278 | 0.198 | 0.172 | 0.146
4 | ChaGo-K-1 | 0.524 | 0.402 | 0.403 | 0.184 | 0.206 | 0.243 | 0.259 | 0.261 | 0.246 | 0.257 | 0.414 | 0.308 | 0.265 | 0.164 | 0.15 | 0.661 | 0.577 | 0.253 | 0.136 | 0.155
5 | COR-L 105 | 0.688 | 0.686 | 0.542 | 0.352 | 0.322 | 1.06 | 1.07 | 0.992 | 1.02 | 1.12 | 0.655 | 0.668 | 0.679 | 0.404 | 0.296 | 0.69 | 0.596 | 0.35 | 0.254 | 0.214
6 | NCI-H1975 | 0.321 | 0.372 | 0.276 | 0.172 | 0.14 | 0.261 | 0.288 | 0.274 | 0.297 | 0.303 | 0.776 | 0.71 | 0.544 | 0.161 | 0.169 | 0.628 | 0.623 | 0.515 | 0.125 | 0.107
7 | NCI-H1993 | 0.61 | 0.601 | 0.436 | 0.42 | 0.405 | 0.515 | 0.566 | 0.474 | 0.566 | 0.644 | 1.04 | 0.861 | 0.749 | 0.471 | 0.486 | 0.521 | 0.481 | 0.519 | 0.484 | 0.453
8 | RERF-LC-KJ | 0.692 | 0.437 | 0.157 | 0.194 | 0.215 | 0.469 | 0.505 | 0.46 | 0.439 | 0.506 | 0.901 | 0.571 | 0.24 | 0.201 | 0.223 | 0.64 | 0.361 | 0.184 | 0.188 | 0.198
9 | NCI-H23 | 0.3 | 0.364 | 0.244 | 0.155 | 0.168 | 0.52 | 0.915 | 0.597 | 0.71 | 0.777 | 0.307 | 0.318 | 0.212 | 0.117 | 0.104 | 0.551 | 0.508 | 0.16 | 0.107 | 0.107
10 | HCC-366 | 0.407 | 0.408 | 0.248 | 0.036 | 0.0402 | 0.127 | 0.149 | 0.132 | 0.138 | 0.143 | 0.323 | 0.368 | 0.21 | 0.0235 | 0.0223 | 0.835 | 0.856 | 0.146 | 0.0244 | 0.0284
11 | EMC-BAC-2 | 0.986 | 0.959 | 0.866 | 0.287 | 0.235 | 0.451 | 0.497 | 0.446 | 0.451 | 0.453 | 0.463 | 0.324 | 0.303 | 0.207 | 0.231 | 0.381 | 0.358 | 0.249 | 0.193 | 0.184
12 | NCI-H2405 | 0.721 | 0.662 | 0.387 | 0.307 | 0.392 | 1.04 | 1.01 | 0.956 | 1.08 | 1.06 | 0.855 | 0.547 | 0.325 | 0.281 | 0.416 | 0.609 | 0.64 | 0.481 | 0.163 | 0.312
13 | NCI-H358 | 0.204 | 0.187 | 0.0935 | 0.0948 | 0.112 | 0.179 | 0.186 | 0.184 |  | 0.21 | 0.559 | 0.247 | 0.0974 | 0.0882 | 0.0802 | 0.758 | 0.477 | 0.0848 | 0.0717 | 0.0809
14 | NCI-H1944 | 0.454 | 0.444 | 0.399 | 0.168 | 0.192 | 0.564 | 0.665 | 0.664 | 0.571 | 0.734 | 0.385 | 0.389 | 0.297 | 0.164 | 0.147 | 0.418 | 0.443 | 0.291 | 0.134 | 0.148
15 | NCI-H2342 |  | 0.732 | 0.637 | 0.514 | 0.433 | 0.74 | 0.755 | 0.812 | 0.584 | 0.772 |  | 0.424 | 0.367 | 0.319 | 0.26 | 0.664 | 0.546 | 0.598 | 0.362 | 0.367
16 | EPLC-272H | 0.359 | 0.363 | 0.258 | 0.0826 | 0.131 | 0.338 | 0.303 | 0.303 | 0.311 | 0.335 | 0.478 | 0.111 | 0.124 | 0.081 | 0.0599 | 0.35 | 0.21 | 0.165 | 0.162 | 0.137
